The text below walks through data of US20230116703A1, “NOVEL ERGOLINES AND METHODS OF TREATING MOOD DISORDERS” (priority 2021, published 2023).

Assay [1] has as its target T1, 5-HT2B receptor (Homo sapiens, UniProt P41595).
T1 construct: host or cells: HEK293
The assay is described as follows: 5-HT2B receptor radioligand binding with [^3H]LSD.

Assay [2] concerns Sprague Dawley rats. The experiment in a line: Forced swim test (FST) in rats. The class given is in vivo, rat. The following applies: for efficacy in FST compared to positive control desipramine (in words): 0.032 mg/kg, SC. The protocol: Compound 1 induced antidepressant-like effects in the forced swim test (FST) in rats with a 23.5-h pre-treatment time (FIG. 2).
Animals. Male Sprague Dawley rats, aged 9-10 weeks, were used in this experiment. Animals were housed in groups of 2 under controlled temperature (22±3° C.) and relative humidity (30-70%) conditions, with 12-hour light/dark cycles, and with ad libitum food and water. This study was carried out in strict accordance with the requirements of the Committee for the Purpose of Control and Supervision of Experiments on Animals (CPCSEA), India. All efforts were made to minimize suffering.
Drugs and Drug Administration. Compound 1 was synthesized as described above. Desipramine HCl was commercially obtained. The test compound, saline vehicle, and the positive control desipramine were administered subcutaneously (SC), with doses calculated based on the freebase. Normal saline was used as the vehicle. All compounds were administered at a volume of 5 mL/kg. The test compound and vehicle were administered 0.5 h after the start of the training swim (Swim 1) and 23.5 h before the test swim (Swim 2). Desipramine was administered 3 times, at 23.5 h, 5 h, and 1 h before the test swim (Swim 2), each time at a dose of 20 mg/kg. Group size was n=10 per treatment.
Forced Swim Test (FST). […] Rats were handled for about 2 min daily for the 5 days prior to the beginning of the experimental procedure. On the first day of the experiment (i.e., Day 0), post randomization, training swim sessions (Swim 1) were conducted between 12:00 and 18:00 h with all animals by placing rats in individual glass cylinders (46 cm tall×20 cm in diameter) containing 23-25° C. water 30 cm deep for 15 minutes. At the conclusion of Swim 1, animals were dried with paper towels, placed in heated drying cages for 15 minutes, and then returned to their home cages. […]
Behavioral scoring was conducted by observers who were blind to the treatment groups. Animals were continuously observed during Swim 2 and the total time spent engaging in the following behaviors was recorded: immobile, swimming, and climbing. […]

Assay [3] relates to C57BL/6 mice. The assay is described as follows: Marble burying test (MBT) in mice. The class given is in vivo. The following applies: mouse, SC, 30-minute period. The protocol: Compound 1 produced an anxiolytic-like effect in the marble burying test (MBT) in C57BL/6 mice (FIG. 3).
Animals. Adult male C57BL/6 mice, aged 8-10 weeks (body weight 20-25 g) were used in these experiments. Animals were housed under controlled temperatures and 12-hour light/dark cycles (lights on between 07:00-19:00 h), with ad libitum food and water. This study was carried out in strict accordance with the requirements of the Committee for the Purpose of Control and Supervision of Experiments on Animals (CPCSEA), India. All efforts were made to minimize suffering.
Drugs and Drug Administration. Compound 1 was synthesized as described above. Desipramine HCl was commercially obtained. The test compound, vehicle, and the positive control desipramine were administered subcutaneously (SC), with doses calculated based on the freebase. Normal saline was used as the vehicle. All compounds were administered at a volume of 10 mL/kg. All treatments were administered 30 minutes prior to the start of behavioral testing. Group size was n=9-10 per treatment.
Marble Burying Test (MBT). […] Mice were handled for about 2 min daily for the 3 days prior to the beginning of the experimental procedure. […] The total number of marbles buried were counted in three 10-minute time bins (total 30 minutes). […]

T1 sequence (P41595 whole entry): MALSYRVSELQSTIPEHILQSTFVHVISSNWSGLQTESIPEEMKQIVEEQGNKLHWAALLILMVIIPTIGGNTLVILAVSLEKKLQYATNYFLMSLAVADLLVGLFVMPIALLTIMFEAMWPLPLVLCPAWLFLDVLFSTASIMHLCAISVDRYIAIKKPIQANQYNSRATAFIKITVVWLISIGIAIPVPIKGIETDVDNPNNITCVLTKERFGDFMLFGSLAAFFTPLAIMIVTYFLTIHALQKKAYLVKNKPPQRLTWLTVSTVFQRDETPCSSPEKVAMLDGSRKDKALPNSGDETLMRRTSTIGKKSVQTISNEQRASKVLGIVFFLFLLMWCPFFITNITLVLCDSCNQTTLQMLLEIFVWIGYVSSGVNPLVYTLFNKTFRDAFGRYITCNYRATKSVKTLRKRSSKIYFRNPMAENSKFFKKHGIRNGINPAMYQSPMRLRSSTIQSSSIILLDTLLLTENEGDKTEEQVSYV

One may read the Ki as a dissociation constant, usually derived from enzyme kinetics or from competition with a known ligand. High values mean lower affinity, low ones higher affinity. Regarding `CCCN1C[C@H](C(=O)NC(CC)CC)C=C2c3cccc4[nH]cc(c34)C[C@H]21` [Compound 6, (6aR,9R)—N-(pentan-3-yl)-7-propyl-4,6,6a,7,8,9-hexahydroindolo[4,3-fg]quinoline-9-carboxamide], in assay [1], the Ki was 3.33 nM. For the molecule `CCCN1C[C@H](C(=O)N2[C@@H](C)C[C@@H]2C)C=C2c3cccc4[nH]cc(c34)C[C@H]21` [Compound 4, ((2S,4S)-2,4-dimethylazetidin-1-yl)((6aR,9R)-7-propyl-4,6,6a,7,8,9-hexahydroindolo[4,3-fg]quinolin-9-yl)methanone], in assay [1], the Ki was determined as 17.7 nM. For the same molecule, the “efficacy in FST compared to positive control desipramine (in words)” value in assay [2] was “as efficacious as the positive control desipramine”. Regarding `CCN(CC)C(=O)[C@@H]1C=C2c3cccc4[nH]cc(c34)C[C@H]2N(CCCF)C1` [Compound 2, (6aR,9R)—N,N-diethyl-7-(3-fluoropropyl)-4,6,6a,7,8,9-hexahydroindolo[4,3-fg]quinoline-9-carboxamide], affinity in assay [1] was put at a Ki of 4.1 nM. Also, the “efficacy in FST compared to positive control desipramine (in words)” value in assay [2] is given as “as efficacious as the positive control desipramine”. On to `CCCN1C[C@H](C(=O)N(CC)CC)C=C2c3cccc4[nH]cc(c34)C[C@H]21` [Compound 1, (6aR,9R)—N,N-diethyl-7-propyl-4,6,6a,7,8,9-hexahydroindolo[4,3-fg]quinoline-9-carboxamide], for which the “immobility time relative to vehicle (in words)” value in assay [2] (rat FST, 23.5 h after a single SC administration) is “reduced immobility time”. The “number of marbles buried compared to vehicle (in words)” value in assay [3] is listed as “reduced the number of marbles buried”.

The molecule `CCCN1C[C@H](C(=O)N[C@H](C)CC)C=C2c3cccc4[nH]cc(c34)C[C@H]21` [Compound 3, (6aR,9R)—N—((R)-sec-butyl)-7-propyl-4,6,6a,7,8,9-hexahydroindolo[4,3-fg]quinoline-9-carboxamide] registered a Ki in assay [1] of 4.09 nM.
